# Structures can show the parent of a compound that is named as a salt.
row,Structure (SMILES),melting point
1,"Cc1ccc(C(NC(=O)Cc2ccc3c(c2)CC(=O)N3C)c2ccc(C)o2)c(N2CCCCC2)c1 (centres unmarked) (as salt: HCl) [Cpd. 38, N-{[4-methyl-2-(piperidin-1-yl)phenyl](5-methylfuran-2-yl)methyl}-2-(1-methyl-2-oxo-2,3-dihydro-1H-indol-5-yl)acetamide]",215 °C
2,"Cc1ccc(C(NC(=O)Cc2ccc3c(c2)CS(=O)(=O)N3CC2CCOCC2)c2ccc(C)o2)c(Br)c1 (centres unmarked) (as salt: HCl) [Cpd. 68, N-[(2-bromo-4-methylphenyl)(5-methylfuran-2-yl)methyl]-2-[1-(oxan-4-ylmethyl)-2,2-dioxo-1,3-dihydro-2,1-benzothiazol-5-yl]acetamide]",92 °C
3,"Cc1ccc(C(NC(=O)Cc2cccc3c2CN(S(C)(=O)=O)C3)c2ccc(C)o2)c(N2CCCCC2)c1 (centres unmarked) (as salt: HCl) [Cpd. 50, 2-(2-methanesulfonyl-2,3-dihydro-1H-isoindol-4-yl)-N-{[4-methyl-2-(piperidin-1-yl)phenyl](5-methylfuran-2-yl)methyl}acetamide]",155 °C
4,"Cc1ccc(C(NC(=O)Cc2ccc3[nH]cc(C(=O)CS(C)(=O)=O)c3c2)c2ccc(C)o2)c(N2CCCCC2)c1 (centres unmarked) (as salt: HCl) [Cpd. 103, 2-[3-(2-methanesulfonylacetyl)-1H-indol-5-yl]-N-{[4-methyl-2-(piperidin-1-yl)phenyl](5-methylfuran-2-yl)methyl}acetamide]",139 °C
5,"Cc1ccc(C(NC(=O)Cc2ccc3c(c2)CC(=O)N3)c2ccc(Cl)o2)c(N2CCCCC2)c1 (centres unmarked) (as salt: HCl) [Cpd. 83, N-[(5-chlorofuran-2-yl)[4-methyl-2-(piperidin-1-yl)phenyl]methyl]-2-(2-oxo-2,3-dihydro-1H-indol-5-yl)acetamide]",105 °C
6,"Cc1ccc(C(NC(=O)Cc2ccc3c(ccn3CCC(=O)OC(C)(C)C)c2)c2ccc(C)o2)c(C)c1 (centres unmarked) (as salt: HCl) [Cpd. 99, tert-butyl 3-[5-({[(2,4-dimethylphenyl)(5-methylfuran-2-yl)methyl]carbamoyl}methyl)-1H-indol-1-yl]propanoate]",39 °C
7,"Cc1ccc(C(NC(=O)Cc2ccc3c(c2)C(=O)C(=O)N3C)c2ccc(C)o2)c(N2CCCCC2)c1 (centres unmarked) (as salt: sodium) [Cpd. 45, 2-(1-methyl-2,3-dioxo-2,3-dihydro-1H-indol-5-yl)-N-{[4-methyl-2-(piperidin-1-yl)phenyl](5-methylfuran-2-yl)methyl}acetamide]",99 °C
8,"Cc1ccc(C(NC(=O)C2(c3ccc4[nH]cc(CCO)c4c3)CC2)c2ccc(C)o2)c(N2CCCCC2)c1 (centres unmarked) (as salt: HCl) [Cpd. 66, 1-[3-(2-hydroxyethyl)-1H-indol-5-yl]-N-{[4-methyl-2-(piperidin-1-yl)phenyl](5-methylfuran-2-yl)methyl}cyclopropane-1-carboxamide]",95 °C
9,"Cc1ccc(C(NC(=O)Cc2ccc3c(c2)CCC3O)c2ccc(C)o2)c(N2CCCCC2)c1 (centres unmarked) (as salt: sodium) [Cpd. 52, 2-(1-hydroxy-2,3-dihydro-1H-inden-5-yl)-N-{[4-methyl-2-(piperidin-1-yl)phenyl](5-methylfuran-2-yl)methyl}acetamide]",97 °C
10,"Cc1ccc(C(NC(=O)C2(c3ccc4c(c3)CS(=O)(=O)C4)CC2)c2ccc(Cl)o2)c(C)c1 (centres unmarked) (as salt: HCl) [Cpd. 72, N-[(5-chlorofuran-2-yl)(2,4-dimethylphenyl)methyl]-1-(2,2-dioxo-1,3-dihydro-2-benzothiophen-5-yl)cyclopropane-1-carboxamide]",80 °C
11,"Cc1ccc(C(NC(=O)Cc2ccc3c(c2)CN(S(C)(=O)=O)C3)c2ccc(C)o2)c(N2CCCCC2)c1 (centres unmarked) (as salt: HCl) [Cpd. 41, 2-(2-methanesulfonyl-2,3-dihydro-1H-isoindol-5-yl)-N-{[4-methyl-2-(piperidin-1-yl)phenyl](5-methylfuran-2-yl)methyl}acetamide]",83 °C
12,"CC(C)=C1C(=O)Nc2ccc(CC(=O)NC(c3ccc(C)o3)c3ccc(C)cc3N3CCCCC3)cc21 (centres unmarked) (as salt: HCl) [Cpd. 55, N-{[4-methyl-2-(piperidin-1-yl)phenyl](5-methylfuran-2-yl)methyl}-2-[2-oxo-3-(propan-2-ylidene)-2,3-dihydro-1H-indol-5-yl]acetamide]",172 °C
13,"Cc1ccc(C(NC(=O)Cc2ccc3c(c2)/C(=N/N)C(=O)N3)c2ccc(C)o2)c(N2CCCCC2)c1 (centres unmarked) (hydrate or solvate) [Cpd. 84, 2-[(3Z)-3-hydrazinylidene-2-oxo-2,3-dihydro-1H-indol-5-yl]-N-{[4-methyl-2-(piperidin-1-yl)phenyl](5-methylfuran-2-yl)methyl}acetamide]",130 °C
14,"Cc1ccc(C(NC(=O)Cc2ccc3c(c2)CCC3=O)c2ccc(C)o2)c(N2CCCCC2)c1 (centres unmarked) (as salt: HCl) [Cpd. 51, N-{[4-methyl-2-(piperidin-1-yl)phenyl](5-methylfuran-2-yl)methyl}-2-(1-oxo-2,3-dihydro-1H-inden-5-yl)acetamide]",74 °C
15,"CNS(=O)(=O)c1c[nH]c2ccc(CC(=O)NC(c3ccc(C)o3)c3ccc(C)cc3N3CCCCC3)cc12 (centres unmarked) (as salt: HCl) [Cpd. 115, N-{[4-methyl-2-(piperidin-1-yl)phenyl](5-methylfuran-2-yl)methyl}-2-[3-(methylsulfamoyl)-1H-indol-5-yl]acetamide]",119 °C

# Next, values leading:
row,melting point,Structure (SMILES)
1,55 °C,"COCC(=O)N1Cc2ccc(C3(C(=O)NC(c4ccc(C)o4)c4ccc(C)cc4C)CC3)cc2C1 (centres unmarked) (as salt: HCl) [Cpd. 122, N-[(2,4-dimethylphenyl)(5-methylfuran-2-yl)methyl]-1-[2-(2-methoxyacetyl)-2,3-dihydro-1H-isoindol-5-yl]cyclopropane-1-carboxamide]"
2,181 °C,"Cc1ccc(C(NC(=O)C2(c3ccc4c(c3)OCC(=O)N4)CC2)c2cccc(Cl)c2)c(C)c1 (centres unmarked) (as salt: HCl) [Cpd. 143, N-[(3-chlorophenyl)(2,4-dimethylphenyl)methyl]-1-(3-oxo-3,4-dihydro-2H-1,4-benzoxazin-7-yl)cyclopropane-1-carboxamide]"
3,94 °C,"Cc1ccc(C(NC(=O)C2(c3ccc4c(c3)OCC(=O)N4)CC2)c2cccc(C)n2)c(C)c1 (centres unmarked) (as salt: HCl) [Cpd. 136, N-[(2,4-dimethylphenyl)(6-methylpyridin-2-yl)methyl]-1-(3-oxo-3,4-dihydro-2H-1,4-benzoxazin-7-yl)cyclopropane-1-carboxamide]"
4,65 °C,"Cc1ccc(C(NC(=O)C2(c3ccc4c(c3)OCS(=O)(=O)N4C)CC2)c2ccc(C)o2)c(C)c1 (centres unmarked) (as salt: HCl) [Cpd. 172, N-[(2,4-dimethylphenyl)(5-methylfuran-2-yl)methyl]-1-(1-methyl-2,2-dioxo-1,3-dihydro-4,2,1-benzoxathiazin-6-yl)cyclopropane-1-carboxamide]"
5,82 °C,"Cc1ccc(C(NC(=O)C2(c3ccc4c(c3)C(C)(C)C(=O)N4)CC2)c2ccc(C)o2)c(C)c1 (centres unmarked) (as salt: HCl) [Cpd. 146, 1-(3,3-dimethyl-2-oxo-2,3-dihydro-1H-indol-5-yl)-N-[(2,4-dimethylphenyl)(5-methylfuran-2-yl)methyl]cyclopropane-1-carboxamide]"
6,177 °C,"Cc1ccc(C(NC(=O)C2(c3ccc4c(c3)C(F)(F)C(=O)N4)CC2)c2ccc(C)o2)c(C)c1 (centres unmarked) (as salt: HCl) [Cpd. 159, 1-(3,3-difluoro-2-oxo-2,3-dihydro-1H-indol-5-yl)-N-[(2,4-dimethylphenyl)(5-methylfuran-2-yl)methyl]cyclopropane-1-carboxamide]"
7,72 °C,"CC(=O)N1Cc2ccc(C3(C(=O)NC(c4ccc(C)o4)c4ccc(C)cc4C)CC3)cc2C1 (centres unmarked) (as salt: HCl) [Cpd. 127, 1-(2-acetyl-2,3-dihydro-1H-isoindol-5-yl)-N-[(2,4-dimethylphenyl)(5-methylfuran-2-yl)methyl]cyclopropane-1-carboxamide]"
8,56 °C,"Cc1ccc(C(NC(=O)C2(c3ccc4c(c3)CCC4=O)CC2)c2ccc(C)o2)c(C)c1 (centres unmarked) (as salt: HCl) [Cpd. 141, N-[(2,4-dimethylphenyl)(5-methylfuran-2-yl)methyl]-1-(1-oxo-2,3-dihydro-1H-inden-5-yl)cyclopropane-1-carboxamide]"
9,102 °C,"Cc1ccc(C(NC(=O)C2(c3cc(F)c4c(c3)CC(=O)N4)CC2)c2ccc(C)o2)c(C)c1 (centres unmarked) (as salt: HCl) [Cpd. 158, N-[(2,4-dimethylphenyl)(5-methylfuran-2-yl)methyl]-1-(7-fluoro-2-oxo-2,3-dihydro-1H-indol-5-yl)cyclopropane-1-carboxamide]"
10,73 °C,"Cc1ccc(C(NC(=O)C2(c3ccc4c(c3)CS(=O)(=O)N4C)CC2)c2ccc(C)o2)c(N(C)C)c1 (centres unmarked) (as salt: HCl) [Cpd. 133, N-{[2-(dimethylamino)-4-methylphenyl](5-methylfuran-2-yl)methyl}-1-(1-methyl-2,2-dioxo-1,3-dihydro-2,1-benzothiazol-5-yl)cyclopropane-1-carboxamide]"
11,180 °C,"Cc1ccc(C(NC(=O)C2(c3ccc4c(c3)OCC(=O)N4)CC2)c2ccco2)c(C)c1 (centres unmarked) (as salt: HCl) [Cpd. 139, N-[(2,4-dimethylphenyl)(furan-2-yl)methyl]-1-(3-oxo-3,4-dihydro-2H-1,4-benzoxazin-7-yl)cyclopropane-1-carboxamide]"
12,199 °C,"Cc1ccc(C(NC(=O)C2(c3ccc4c(c3)OCC(=O)N4)CC2)c2ccc(Cl)o2)c(N2CCCCC2)c1 (centres unmarked) (as salt: HCl) [Cpd. 145, N-[(5-chlorofuran-2-yl)[4-methyl-2-(piperidin-1-yl)phenyl]methyl]-1-(3-oxo-3,4-dihydro-2H-1,4-benzoxazin-7-yl)cyclopropane-1-carboxamide]"
13,102 °C,"Cc1ccc(C(NC(=O)C2(c3ccc4c(c3)OCS(=O)(=O)N4)CC2)c2ccc(Cl)o2)c(C)c1 (centres unmarked) (as salt: HCl) [Cpd. 149, N-[(5-chlorofuran-2-yl)(2,4-dimethylphenyl)methyl]-1-(2,2-dioxo-1,3-dihydro-4,2,1-benzoxathiazin-6-yl)cyclopropane-1-carboxamide]"
14,58 °C,"Cc1ccc(C(NC(=O)C2(c3ccc4c(c3)CCC4O)CC2)c2ccc(C)o2)c(C)c1 (centres unmarked) (as salt: sodium) [Cpd. 155, N-[(2,4-dimethylphenyl)(5-methylfuran-2-yl)methyl]-1-(1-hydroxy-2,3-dihydro-1H-inden-5-yl)cyclopropane-1-carboxamide]"

# Reference: patent US11052092B2, “N-{[2-(piperidin-1-yl)phenyl](phenyl)methyl}-2-(3-oxo-3,4-dihydro-2H-1,4-benzoxazin-7-yl)acetamide derivatives and related compounds as ROR-gamma modulators for treating autoimmune diseases” (Genfit, priority 2017, dated 2021)
